The term IC50 denotes the concentration needed to halve the response being measured. Lower therefore signals inhibition by little substance.

Assay [1] deals with T1, Amine oxidase [flavin-containing] B (Rattus norvegicus, UniProt P19643).
T1 sequence (P19643 whole entry): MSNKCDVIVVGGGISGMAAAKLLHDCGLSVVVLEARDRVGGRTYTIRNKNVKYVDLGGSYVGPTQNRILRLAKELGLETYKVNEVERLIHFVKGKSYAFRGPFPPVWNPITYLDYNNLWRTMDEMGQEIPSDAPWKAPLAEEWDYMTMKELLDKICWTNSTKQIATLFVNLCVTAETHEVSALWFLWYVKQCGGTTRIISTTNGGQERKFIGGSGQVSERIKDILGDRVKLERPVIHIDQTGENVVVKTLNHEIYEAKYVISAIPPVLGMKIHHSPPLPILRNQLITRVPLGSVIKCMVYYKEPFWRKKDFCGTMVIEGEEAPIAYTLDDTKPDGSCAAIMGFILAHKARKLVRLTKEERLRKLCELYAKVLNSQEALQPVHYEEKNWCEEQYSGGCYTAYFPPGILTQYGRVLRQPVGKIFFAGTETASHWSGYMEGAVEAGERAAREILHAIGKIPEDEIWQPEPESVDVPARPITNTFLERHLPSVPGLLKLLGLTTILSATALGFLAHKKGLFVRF
Description: Inhibition of rat brain synaptosome MAO-B.

For assay [2], the target named is T2, Amine oxidase [flavin-containing] A (Rattus norvegicus, UniProt P21396).
T2 sequence (P21396 whole entry): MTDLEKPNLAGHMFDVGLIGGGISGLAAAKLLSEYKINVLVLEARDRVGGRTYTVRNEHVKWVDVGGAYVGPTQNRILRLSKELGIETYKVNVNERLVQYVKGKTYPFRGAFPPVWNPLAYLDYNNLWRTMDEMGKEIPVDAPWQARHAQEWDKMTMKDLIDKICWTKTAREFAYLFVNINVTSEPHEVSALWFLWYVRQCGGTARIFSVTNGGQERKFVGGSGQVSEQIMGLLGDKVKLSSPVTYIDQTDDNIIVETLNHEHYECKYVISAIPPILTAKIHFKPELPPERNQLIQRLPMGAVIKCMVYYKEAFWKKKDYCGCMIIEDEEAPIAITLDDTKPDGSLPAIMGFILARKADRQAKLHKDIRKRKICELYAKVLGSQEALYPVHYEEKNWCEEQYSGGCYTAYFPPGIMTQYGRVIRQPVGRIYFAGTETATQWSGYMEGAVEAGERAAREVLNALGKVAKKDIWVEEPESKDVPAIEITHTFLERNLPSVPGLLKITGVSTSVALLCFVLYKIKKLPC
Description: Inhibition of rat brain synaptosome MAO-A.

Regarding `Cc1c(C(=O)CC(C#N)C#N)c(=O)n(-c2ccccc2)n1C`, the IC50 in assay [1] stood at 13 nM; in assay [2], 2.3 nM.

For the origin of these results see BindingDB's records for PubMed 31761383 (n/a, 2020).
